# Laboratory results as given in ChEMBL document CHEMBL1255382, “Genetic mapping of targets mediating differential chemical phenotypes in Plasmodium falciparum” (Nat Chem Biol, 2009).
# Where a name gives a salt, the structure may show the parent alone.
# What was measured:
# Plasmodium falciparum [1] = assay: microbe, parasite or virus in culture; details: HB3, 72 h
# Description: Antiplasmodial activity against Plasmodium falciparum HB3 after 72 hrs by SYBR green assay
# Plasmodium falciparum [2] = assay: microbe, parasite or virus in culture; details: D10, 72 h
# Description: Antiplasmodial activity against Plasmodium falciparum D10 after 72 hrs by SYBR green assay
# Plasmodium falciparum [3] = assay: Antiplasmodial activity against Plasmodium falciparum CDY harboring modified mdr1 protein after 72 hrs by SYBR green assay in presence of 0.8 uM P-gp inhibitor verapamil; format: functional, organism-based; details: MDR1, 72 h
# Plasmodium falciparum [4] = assay: microbe, parasite or virus in culture; format: functional, organism-based, W2; details: for IC50: Plasmodium falciparum, W2, 72 h
# Description: Antiplasmodial activity against Plasmodium falciparum W2 after 72 hrs by SYBR green assay
# Plasmodium falciparum [5] = assay: microbe, parasite or virus in culture; details: Dd2, 72 h
# Description: Antiplasmodial activity against Plasmodium falciparum Dd2 after 72 hrs by SYBR green assay
# Plasmodium falciparum [6] = assay: microbe, parasite or virus in culture; format: functional, organism-based; details: 7G8, 72 h
# Description: Antiplasmodial activity against Plasmodium falciparum 7G8 after 72 hrs by SYBR green assay
# Plasmodium falciparum [7] = assay: microbe, parasite or virus in culture; format: functional, organism-based; details: GB4, 72 h
# Description: Antiplasmodial activity against Plasmodium falciparum GB4 after 72 hrs by SYBR green assay
# Plasmodium falciparum [8] = assay: microbe, parasite or virus in culture; format: functional, organism-based; details: 3D7, 72 h
# Description: Antiplasmodial activity against Plasmodium falciparum 3D7 after 72 hrs by SYBR green assay
# Plasmodium falciparum [9] = assay: microbe, parasite or virus in culture; details: GB4, 72 h
# Description: Antiplasmodial activity against Plasmodium falciparum GB4 harboring polymorphic DHFR after 72 hrs by SYBR green assay
# Plasmodium falciparum [10] = assay: microbe, parasite or virus in culture; details: HB3 pDT, 72 h
# Description: Antiplasmodial activity against transgenic Plasmodium falciparum HB3 pDT harboring polymorphic DHFR after 72 hrs by SYBR green assay
# Plasmodium falciparum [11] = assay: microbe, parasite or virus in culture; details: 7G8, 72 h
# Description: Antiplasmodial activity against Plasmodium falciparum 7G8 harboring polymorphic DHFR after 72 hrs by SYBR green assay
# Plasmodium falciparum [12] = assay: microbe, parasite or virus in culture; details: Dd2, 72 h; remark: listed apart in the source
# Description: Antiplasmodial activity against Plasmodium falciparum Dd2 harboring polymorphic DHFR after 72 hrs by SYBR green assay
# Plasmodium falciparum [13] = assay: microbe, parasite or virus in culture; details: HB3, 72 h; remark: listed apart in the source
# Description: Antiplasmodial activity against Plasmodium falciparum HB3 harboring polymorphic DHFR after 72 hrs by SYBR green assay
# Plasmodium falciparum [14] = assay: microbe, parasite or virus in culture; details: XG10, 72 h
# Description: Antiplasmodial activity against Plasmodium falciparum XG10 after 72 hrs by SYBR green assay
# Plasmodium falciparum [15] = assay: microbe, parasite or virus in culture; details: KB8, 72 h
# Description: Antiplasmodial activity against Plasmodium falciparum KB8 after 72 hrs by SYBR green assay
# Plasmodium falciparum [16] = assay: microbe, parasite or virus in culture; details: W2, 72 h
# Description: Antiplasmodial activity against Plasmodium falciparum W2 harboring polymorphic DHFR after 72 hrs by SYBR green assay
# Plasmodium falciparum [17] = assay: microbe, parasite or virus in culture; details: NF10, 72 h
# Description: Antiplasmodial activity against Plasmodium falciparum NF10 after 72 hrs by SYBR green assay
# Plasmodium falciparum [18] = assay: microbe, parasite or virus in culture; details: QF5, 72 h
# Description: Antiplasmodial activity against Plasmodium falciparum QF5 after 72 hrs by SYBR green assay
# Plasmodium falciparum [19] = assay: microbe, parasite or virus in culture; details: DAN, 72 h
# Description: Antiplasmodial activity against Plasmodium falciparum DAN after 72 hrs by SYBR green assay
# Plasmodium falciparum [20] = assay: microbe, parasite or virus in culture; details: KC2, 72 h
# Description: Antiplasmodial activity against Plasmodium falciparum KC2 after 72 hrs by SYBR green assay
# Plasmodium falciparum [21] = assay: microbe, parasite or virus in culture; details: JF11, 72 h
# Description: Antiplasmodial activity against Plasmodium falciparum JF11 after 72 hrs by SYBR green assay
# Plasmodium falciparum [22] = assay: microbe, parasite or virus in culture; details: TF1, 72 h
# Description: Antiplasmodial activity against Plasmodium falciparum TF1 after 72 hrs by SYBR green assay
# Plasmodium falciparum [23] = assay: microbe, parasite or virus in culture; details: XE7, 72 h
# Description: Antiplasmodial activity against Plasmodium falciparum XE7 after 72 hrs by SYBR green assay
# Plasmodium falciparum [24] = assay: microbe, parasite or virus in culture; details: JC3, 72 h
# Description: Antiplasmodial activity against Plasmodium falciparum JC3 after 72 hrs by SYBR green assay
# Plasmodium falciparum [25] = assay: microbe, parasite or virus in culture; details: AUD, 72 h
# Description: Antiplasmodial activity against Plasmodium falciparum AUD after 72 hrs by SYBR green assay
# Plasmodium falciparum [26] = assay: microbe, parasite or virus in culture; details: DEV, 72 h
# Description: Antiplasmodial activity against Plasmodium falciparum DEV after 72 hrs by SYBR green assay
# Plasmodium falciparum [27] = assay: microbe, parasite or virus in culture; details: KA6, 72 h
# Description: Antiplasmodial activity against Plasmodium falciparum KA6 after 72 hrs by SYBR green assay
# Plasmodium falciparum [28] = assay: microbe, parasite or virus in culture; details: NIC, 72 h
# Description: Antiplasmodial activity against Plasmodium falciparum NIC after 72 hrs by SYBR green assay
# Plasmodium falciparum [29] = test system: Plasmodium falciparum
# Description: (§1) Antiplasmodial activity against Plasmodium falciparum XF12 after 72 hrs by SYBR green assay
# Plasmodium falciparum [30] = assay: microbe, parasite or virus in culture; details: WF12, 72 h
# Description: Antiplasmodial activity against Plasmodium falciparum WF12 after 72 hrs by SYBR green assay
# Plasmodium falciparum [31] = assay: microbe, parasite or virus in culture; details: KC5, 72 h
# Description: Antiplasmodial activity against Plasmodium falciparum KC5 after 72 hrs by SYBR green assay
# Plasmodium falciparum [32] = assay: microbe, parasite or virus in culture; details: WE2, 72 h
# Description: Antiplasmodial activity against Plasmodium falciparum WE2 after 72 hrs by SYBR green assay
# Plasmodium falciparum [33] = assay: microbe, parasite or virus in culture; details: D10, 72 h; remark: listed apart in the source
# Description: Antiplasmodial activity against Plasmodium falciparum D10 harboring polymorphic DHFR after 72 hrs by SYBR green assay
# Plasmodium falciparum [34] = assay: microbe, parasite or virus in culture; details: JB12, 72 h
# Description: Antiplasmodial activity against Plasmodium falciparum JB12 after 72 hrs by SYBR green assay
# Plasmodium falciparum [35] = assay: microbe, parasite or virus in culture; details: WC4, 72 h
# Description: Antiplasmodial activity against Plasmodium falciparum WC4 after 72 hrs by SYBR green assay
# Plasmodium falciparum [36] = assay: microbe, parasite or virus in culture; details: LC12, 72 h
# Description: Antiplasmodial activity against Plasmodium falciparum LC12 after 72 hrs by SYBR green assay
# Plasmodium falciparum [37] = assay: microbe, parasite or virus in culture; details: XB3, 72 h
# Description: Antiplasmodial activity against Plasmodium falciparum XB3 after 72 hrs by SYBR green assay
# Plasmodium falciparum [38] = assay: microbe, parasite or virus in culture; details: Dd2, 72 h; remark: listed apart in the source
# Description: Antiplasmodial activity against transgenic Plasmodium falciparum Dd2 pDT harboring polymorphic DHFR after 72 hrs by SYBR green assay
# Plasmodium falciparum [39] = assay: microbe, parasite or virus in culture; details: JB8, 72 h
# Description: Antiplasmodial activity against Plasmodium falciparum JB8 after 72 hrs by SYBR green assay
# Plasmodium falciparum [40] = assay: microbe, parasite or virus in culture; details: JC9, 72 h
# Description: Antiplasmodial activity against Plasmodium falciparum JC9 after 72 hrs by SYBR green assay
# Plasmodium falciparum [41] = assay: microbe, parasite or virus in culture; details: JON, 72 h
# Description: Antiplasmodial activity against Plasmodium falciparum JON after 72 hrs by SYBR green assay
# Plasmodium falciparum [42] = assay: microbe, parasite or virus in culture; details: KH7, 72 h
# Description: Antiplasmodial activity against Plasmodium falciparum KH7 after 72 hrs by SYBR green assay
# Plasmodium falciparum [43] = assay: microbe, parasite or virus in culture; details: XD8, 72 h
# Description: Antiplasmodial activity against Plasmodium falciparum XD8 after 72 hrs by SYBR green assay
# Plasmodium falciparum [44] = assay: microbe, parasite or virus in culture; details: LA10, 72 h
# Description: Antiplasmodial activity against Plasmodium falciparum LA10 after 72 hrs by SYBR green assay
# Plasmodium falciparum [45] = assay: microbe, parasite or virus in culture; details: JH6, 72 h
# Description: Antiplasmodial activity against Plasmodium falciparum JH6 after 72 hrs by SYBR green assay
# Plasmodium falciparum [46] = assay: microbe, parasite or virus in culture; details: AL2, 72 h
# Description: Antiplasmodial activity against Plasmodium falciparum AL2 after 72 hrs by SYBR green assay
# Plasmodium falciparum [47] = assay: microbe, parasite or virus in culture; details: D2, 72 h
# Description: Antiplasmodial activity against Plasmodium falciparum D2 after 72 hrs by SYBR green assay
# Plasmodium falciparum [48] = assay: microbe, parasite or virus in culture; details: XF12, 72 h
# Description: as §1
compound,measurement,setting,value
Cc1cc(N)c2ccccc2[n+]1CCCCCCCCCC[n+]1c(C)cc(N)c2ccccc21 [DEQUALINIUM CHLORIDE],IC50,Plasmodium falciparum [1],0.1 µM
same,IC50,Plasmodium falciparum [2],0.1 µM
CN1C[C@H](C(=O)N[C@]2(C)O[C@@]3(O)[C@@H]4CCCN4C(=O)[C@H](Cc4ccccc4)N3C2=O)C[C@@H]2c3cccc4[nH]cc(c34)C[C@H]21 (stereo in doubt; 1) [DIHYDROERGOTAMINE MESYLATE],IC50,Plasmodium falciparum [3],0.022 µM
CCN(CC)CCNC(=O)c1cc(Cl)c(N)cc1OC.Cl,pIC25,Plasmodium falciparum [4],4.9
Nc1ccc(-c2nc3ccc(-c4nc5ccc(N)cc5[nH]4)cc3[nH]2)cc1,IC50,Plasmodium falciparum [4],0.22 µM
same,IC50,Plasmodium falciparum [1],0.83 µM
same,IC50,Plasmodium falciparum [5],1 µM
same,IC50,Plasmodium falciparum [6],0.52 µM
same,IC50,Plasmodium falciparum [7],0.74 µM
same,IC50,Plasmodium falciparum [2],0.74 µM
same,IC50,Plasmodium falciparum [8],0.28 µM
CC[C@@]1(O)C(=O)OCc2c1cc1n(c2=O)Cc2cc3ccccc3nc2-1 [CAMPTOTHECIN],IC50,Plasmodium falciparum [4],0.56 µM
same,IC50,Plasmodium falciparum [1],0.89 µM
same,IC50,Plasmodium falciparum [5],1.32 µM
same,IC50,Plasmodium falciparum [6],1.41 µM
same,IC50,Plasmodium falciparum [7],0.89 µM
same,IC50,Plasmodium falciparum [2],1.12 µM
same,IC50,Plasmodium falciparum [8],0.83 µM
COc1cc(Cc2cnc(N)nc2N)cc(OC)c1OC [TRIMETHOPRIM],IC50,Plasmodium falciparum [9],4.1 µM
same,IC50,Plasmodium falciparum [10],117 µM
same,IC50,Plasmodium falciparum [11],194 µM
same,IC50,Plasmodium falciparum [12],169 µM
same,IC50,Plasmodium falciparum [13],158 µM
Nc1nc(N)c2nc(-c3ccccc3)c(N)nc2n1,IC50,Plasmodium falciparum [14],8.13 µM
same,IC50,Plasmodium falciparum [15],56.3 µM
same,IC50,Plasmodium falciparum [16],95 µM
same,IC50,Plasmodium falciparum [17],75.1 µM
same,IC50,Plasmodium falciparum [18],3.54 µM
same,IC50,Plasmodium falciparum [19],69.5 µM
same,IC50,Plasmodium falciparum [9],5.3 µM
same,IC50,Plasmodium falciparum [20],60.4 µM
same,IC50,Plasmodium falciparum [10],95 µM
same,IC50,Plasmodium falciparum [21],5.11 µM
same,IC50,Plasmodium falciparum [22],8.82 µM
same,IC50,Plasmodium falciparum [23],18.1 µM
same,IC50,Plasmodium falciparum [24],4.26 µM
same,IC50,Plasmodium falciparum [11],154 µM
same,IC50,Plasmodium falciparum [25],54.2 µM
same,IC50,Plasmodium falciparum [26],60.5 µM
same,IC50,Plasmodium falciparum [27],5.19 µM
same,IC50,Plasmodium falciparum [28],11.2 µM
same,IC50,Plasmodium falciparum [29],17.1 µM
same,IC50,Plasmodium falciparum [30],5.83 µM
same,IC50,Plasmodium falciparum [6],51.7 µM
same,IC50,Plasmodium falciparum [31],73.5 µM
same,IC50,Plasmodium falciparum [32],44.6 µM
same,IC50,Plasmodium falciparum [12],141 µM
same,IC50,Plasmodium falciparum [33],70 µM
same,IC50,Plasmodium falciparum [34],65.1 µM
same,IC50,Plasmodium falciparum [35],52.5 µM
same,IC50,Plasmodium falciparum [36],50.1 µM
same,IC50,Plasmodium falciparum [37],57 µM
same,IC50,Plasmodium falciparum [13],176 µM
same,IC50,Plasmodium falciparum [38],4 µM
same,IC50,Plasmodium falciparum [39],49.4 µM
same,IC50,Plasmodium falciparum [40],43.7 µM
same,IC50,Plasmodium falciparum [41],3.29 µM
same,IC50,Plasmodium falciparum [42],15 µM
same,IC50,Plasmodium falciparum [43],59.8 µM
same,IC50,Plasmodium falciparum [44],5.59 µM
same,IC50,Plasmodium falciparum [45],64.8 µM
same,IC50,Plasmodium falciparum [46],81.8 µM
same,IC50,Plasmodium falciparum [47],22.2 µM
same,IC50,Plasmodium falciparum [48],17.1 µM
CCCNC[C@H](O)COc1ccccc1C(=O)CCc1ccccc1,IC50,Plasmodium falciparum [4],0.28 µM
